Assay results published in ChEMBL document CHEMBL3603790, “2- and 3-Fluoro-3-deazaneplanocins, 2-fluoro-3-deazaaristeromycins, and 3-methyl-3-deazaneplanocin: Synthesis and antiviral properties” (Bioorg Med Chem, 2015).
pIC50: −log10 of the molar value. Active and inactive are the calls of the source. No cut-off for these calls is given here.

Columns and labels:
Vaccinia virus = test: Antiviral activity against Vaccinia virus infected in HEL cells after 3 days by neutral red dye-based plaque reduction assay; assay type: functional, organism-based; conditions: Orthopoxvirus vaccinia
Enterovirus = test: Antiviral activity against Rhinovirus infected in human HeLa Ohio-1 cells after 3 days by neutral red dye-based plaque reduction assay; assay type: functional, organism-based
[1] = Inhibition of rabbit erythrocytic AdoHcy hydrolase using AdoHcy as substrate assessed as formation of L-homocysteine preincubated for 5 mins followed by substrate addition measured after 1 hr by thiol quantitation reagent-based assay; design: species or system Oryctolagus cuniculus
Tacaribe virus = test: Antiviral activity against Tacaribe virus infected in African green monkey Vero 76 cells after 3 days by neutral red dye-based plaque reduction assay; assay type: functional, organism-based; conditions: Mammarenavirus tacaribeense; for pIC50: 72 h
Influenza B virus = test: Antiviral activity against Influenza B virus infected in MDCK cells after 3 days by neutral red dye-based plaque reduction assay; assay type: functional, organism-based; conditions: 72 h
Cowpox virus = test: Antiviral activity against Cowpox virus infected in HFF after 3 days by neutral red dye-based plaque reduction assay; assay type: functional, organism-based
Influenza A virus [2] = test: Antiviral activity against Influenza A virus H3N2 infected in MDCK cells after 3 days by neutral red dye-based plaque reduction assay; assay type: functional, organism-based
[3] = Cytotoxicity against monkey MA104 cells; assay type: cell-based, Macaca mulatta; conditions: rhesus monkey
Yellow fever virus = test: Antiviral activity against Yellow fever virus infected in African green monkey Vero cells after 3 days by neutral red dye-based plaque reduction assay; assay type: functional, organism-based; conditions: 72 h
[4] = Selectivity index, ratio of CC50 for African green monkey Vero 76 cells to IC50 for Tacaribe virus; assay type: functional
[5] = Cytotoxicity against MDCK cells relative to control; assay type: cell-based, Canis lupus familiaris; conditions: dog
[6] = Cytotoxicity against African green monkey Vero cells relative to control; assay type: cell-based; conditions: chlorocebus sabaeus
[7] = Cytotoxicity against African green monkey Vero E6 cells; assay type: cell-based; conditions: chlorocebus sabaeus
[8] = Cytotoxicity against African green monkey Vero 76 cells relative to control; assay type: cell-based; conditions: chlorocebus sabaeus
unidentified adenovirus = test: Antiviral activity against Adenovirus infected in human A549 cells after 3 days by neutral red dye-based plaque reduction assay; assay type: functional, organism-based
MA104 = test: Antiviral activity against Parainfluenza virus infected in monkey MA104 cells after 3 days by neutral red dye-based plaque reduction assay; assay type: functional, cell-based; conditions: Paramyxoviridae
Dengue virus = test: Antiviral activity against Dengue virus infected in African green monkey Vero cells after 3 days by neutral red dye-based plaque reduction assay; assay type: functional, organism-based; conditions: for pIC50: 72 h
HeLa = test: Cytotoxicity against human HeLa cells; assay type: cell-based
[9] = Selectivity index, ratio of CC50 for MDCK cells to IC50 for Influenza A virus H5N1 virus; assay type: functional
[10] = Selectivity index, ratio of CC50 for HFF to IC50 for HCMV; assay type: functional
[11] = Selectivity index, ratio of CC50 for African green monkey Vero cells to IC50 for Yellow fever virus; assay type: functional
[12] = Cytotoxicity against African green monkey Vero cells; assay type: cell-based; conditions: chlorocebus sabaeus, Vero cells
A549 = test: Cytotoxicity against human A549 cells; assay type: cell-based
[13] = Cytotoxicity against human HeLa Ohio-1 cells; assay type: cell-based
Rift Valley fever virus = test: Antiviral activity against Rift Valley fever virus infected in African green monkey Vero 76 cells after 3 days by neutral red dye-based plaque reduction assay; assay type: functional, organism-based; conditions: for pIC50: 72 h
HEL = test: Cytotoxicity against HEL cells; assay type: cell-based; conditions: human
[14] = test system: Respiratory syncytial virus; test: Antiviral activity against Respiratory syncytial virus infected in monkey MA104 cells after 3 days by neutral red dye-based plaque reduction assay; assay type: functional, organism-based
[15] = Cytotoxicity against MDCK cells; assay type: cell-based, Canis lupus familiaris; conditions: dog, MDCK cells
[16] = test system: Venezuelan equine encephalitis virus; test: Antiviral activity against Venezuelan equine encephalitis virus infected in African green monkey Vero cells after 3 days by neutral red dye-based plaque reduction assay; assay type: functional, organism-based
[17] = Cytotoxicity against African green monkey Vero 76 cells; assay type: cell-based; conditions: chlorocebus sabaeus; for CC50: Vero 76 cells
[18] = Cytotoxicity against HFF; assay type: cell-based; conditions: human, HFF cells
[19] = test system: Respiratory syncytial virus; test: Antiviral activity against Respiratory syncytial virus infected in human HeLa cells after 3 days by neutral red dye-based plaque reduction assay; assay type: functional, organism-based
Influenza A virus [20] = test: Antiviral activity against Influenza A virus H5N1 infected in MDCK cells after 3 days by neutral red dye-based plaque reduction assay; assay type: functional, organism-based; conditions: 72 h
SARS-CoV = test: Antiviral activity against SARS coronavirus infected in African green monkey Vero E6 cells after 3 days by neutral red dye-based plaque reduction assay; assay type: functional, organism-based; conditions: Severe acute respiratory syndrome-related coronavirus
[21] = Selectivity index, ratio of CC50 for MDCK cells to IC50 for Influenza B virus; assay type: functional
Influenza A virus [22] = test: Antiviral activity against Influenza A virus H1N1 infected in MDCK cells after 3 days by neutral red dye-based plaque reduction assay; assay type: functional, organism-based
West Nile virus = test: Antiviral activity against WNV infected in African green monkey Vero 76 cells after 3 days by neutral red dye-based plaque reduction assay; assay type: functional, organism-based
Human betaherpesvirus 5 = test: Antiviral activity against HCMV infected in HFF after 3 days by neutral red dye-based plaque reduction assay; assay type: functional, organism-based; conditions: Human betaherpesvirus 5, 72 h
[23] = Selectivity index, ratio of CC50 for African green monkey Vero 76 cells to IC50 for Rift Valley fever virus; assay type: functional
[24] = Selectivity index, ratio of CC50 for African green monkey Vero cells to IC50 for Dengue virus; assay type: functional
Hepatitis B virus = test: Antiviral activity against HBV infected in human HepG22.2.15 cells after 3 days by neutral red dye-based plaque reduction assay; assay type: functional, organism-based; conditions: HepG2 2.2.15, 72 h
[25] = Cytotoxicity against human […] cells; assay type: cell-based
[26] = Cytotoxicity against human Ava5 cells; assay type: cell-based
[27] = Cytotoxicity against African green monkey CV1 cells; assay type: cell-based, CV-1; conditions: chlorocebus aethiops
Hepatitis C virus = test: Antiviral activity against Hepatitis C virus infected in human Ava5 cells after 3 days by neutral red dye-based plaque reduction assay; assay type: functional, organism-based; conditions: Hepacivirus hominis
[28] = Selectivity index, ratio of CC50 for African green monkey CV1 cells to IC50 for Measles virus; assay type: functional, CV-1
Measles morbillivirus = test: Antiviral activity against Measles virus infected in African green monkey CV1 cells after 3 days by neutral red dye-based plaque reduction assay; assay type: functional, organism-based; conditions: CV-1, 72 h

## Cc1cnc(N)c2ncn([C@@H]3C=C(CO)[C@@H](O)[C@H]3O)c12
Vaccinia virus
  Activity: inactive
Enterovirus
  Activity: inactive
[1]
  pIC50: 7.39
Tacaribe virus
  pIC50: 5.92
Influenza B virus
  pIC50: 5.96
Cowpox virus
  Activity: inactive
Influenza A virus [2]
  Activity: inactive
[3]
  Activity: Non-toxic
Yellow fever virus
  pIC50: 5.44
[4]
  Ratio CC50/IC50: 72
[5]
  CC50: > 362 µM
[6]
  CC50: 228 µM
[7]
  Activity: Non-toxic
[8]
  CC50: 83.3 µM
Unidentified adenovirus
  Activity: inactive
MA104
  Activity: inactive
Dengue virus
  pIC50: < 3.64
HeLa
  Activity: Non-toxic
[9]
  Ratio CC50/IC50: 3.3
[10]
  Ratio CC50/IC50: 38.6
[11]
  Ratio CC50/IC50: >100
[12]
  CC50: > 362 µM
A549
  Activity: Non-toxic
[13]
  Activity: Non-toxic
Rift Valley fever virus
  pIC50: < 4.44
HEL
  Activity: Non-toxic
[14]
  Activity: inactive
[15]
  CC50: 250 µM
[16]
  Activity: inactive
[17]
  CC50: 36 µM
[18]
  CC50: 247 µM
[19]
  Activity: inactive
Influenza A virus [20]
  pIC50: 4.12
SARS-CoV
  Activity: inactive
[21]
  Ratio CC50/IC50: >320
Influenza A virus [22]
  Activity: inactive
West Nile virus
  Activity: inactive
Human betaherpesvirus 5
  pIC50: 5.19

## Nc1ncc(F)c2c1ncn2[C@@H]1C=C(CCO)[C@@H](O)[C@H]1O
Vaccinia virus
  Activity: inactive
Enterovirus
  Activity: inactive
[1]
  pIC50: 6.84
Tacaribe virus
  pIC50: > 6.47
Influenza B virus
  pIC50: 6.00
Cowpox virus
  Activity: inactive
Influenza A virus [2]
  Activity: inactive
[3]
  Activity: Non-toxic
Yellow fever virus
  pIC50: 5.82
[4]
  Ratio CC50/IC50: >560
[5]
  CC50: > 340 µM
[6]
  CC50: 109 µM
[7]
  Activity: Non-toxic
[8]
  CC50: 190 µM
[23]
  Ratio CC50/IC50: 2.6
Unidentified adenovirus
  Activity: inactive
MA104
  Activity: inactive
Dengue virus
  pIC50: 4.82
HeLa
  Activity: Non-toxic
[9]
  Ratio CC50/IC50: >2.4
[10]
  Ratio CC50/IC50: 759
[24]
  Ratio CC50/IC50: 7.3
[11]
  Ratio CC50/IC50: >240
[12]
  CC50: > 340 µM
A549
  Activity: Non-toxic
[13]
  Activity: Non-toxic
Rift Valley fever virus
  pIC50: 5.89
HEL
  Activity: Non-toxic
[14]
  Activity: inactive
[15]
  CC50: > 340 µM
[16]
  Activity: inactive
[17]
  CC50: 3.4 µM
[18]
  CC50: > 300 µM
[19]
  Activity: inactive
Influenza A virus [20]
  pIC50: 3.86
SARS-CoV
  Activity: inactive
[21]
  Ratio CC50/IC50: >340
Influenza A virus [22]
  Activity: inactive
West Nile virus
  Activity: inactive
Human betaherpesvirus 5
  pIC50: 5.29

## Nc1ccn([C@@H]2CS[C@H](CO)O2)c(=O)n1 [LAMIVUDINE]
Hepatitis B virus
  pIC50: 7.41
[25]
  CC50: 2.18 mM

## Nc1nc(F)cc2c1ncn2[C@@H]1C[C@H](CO)[C@@H](O)[C@H]1O
Vaccinia virus
  Activity: inactive
[26]
  Activity: Non-toxic
[1]
  pIC50: 5.48
Tacaribe virus
  Activity: inactive
[3]
  Activity: Non-toxic
Yellow fever virus
  pIC50: 5.68
[27]
  CC50: > 355 µM
Dengue virus
  Activity: inactive
HeLa
  Activity: Non-toxic
Hepatitis C virus
  Activity: inactive
[11]
  Ratio CC50/IC50: >170
[28]
  Ratio CC50/IC50: >37
[12]
  CC50: > 355 µM
Rift Valley fever virus
  Activity: inactive
HEL
  Activity: Non-toxic
Measles morbillivirus
  pIC50: 5.02
[14]
  Activity: inactive
[16]
  Activity: inactive
[17]; vero 76
  Activity: Non-toxic
[19]
  Activity: inactive
West Nile virus
  Activity: inactive

## Nc1cc2nc[nH]c2c(=O)[nH]1 [DEZAGUANINE]
[27]
  CC50: 250 µM
Measles morbillivirus
  pIC50: 5.39
